How the values were obtained:
Type in all cases: in vivo
[1] = tested on: bermudagrass (Cynodon dactylon); assay: Test C preemergence; details: for Plant response rating (0 to 100 where 0 is no effect and 100 is complete control), Bermudagrass: Rate 500 g/ha, visual evaluation after 12 to 14 days
Procedure, shortened: (§1)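 Preemergence: seeds sown then treated. Postemergence: plants 2–18 cm, 1- to 4-leaf. Both with surfactant-containing solvent formulation; visual injury scored 0–100 after 12–14 d.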

[2] = tested on: yellow nutsedge (Cyperus esculentus); assay: Test C preemergence; details: for Plant response rating (0 to 100), Nutsedge: Rate 500 g/ha, visual evaluation after 12 to 14 days
Procedure, shortened: as §1

[3] = tested on: giant foxtail (Setaria faberii); assay: Test C preemergence; details: for Plant response rating (0 to 100), Foxtail, Giant: Rate 500 g/ha, visual evaluation after 12 to 14 days
Procedure, shortened: as §1

[4] = tested on: pigweed (Amaranthus retroflexus); assay: Test C preemergence; details: for Plant response rating (0 to 100), Pigweed: Rate 500 g/ha, visual evaluation after 12 to 14 days
Procedure, shortened: as §1

Sunflower = assay: Test C preemergence; details: Rate 125 g/ha; scale 0 to 100, 0 no effect, 100 complete control
[5] = tested on: morningglory (Ipomoea hederacea); assay: Test C postemergence
Procedure, shortened: as §1

corn (Zea mays) = assay: Test C postemergence
Procedure, shortened: as §1

[6] = tested on: bermudagrass (Cynodon dactylon); assay: Test C postemergence
Procedure, shortened: as §1

[7] = tested on: yellow nutsedge (Cyperus esculentus); assay: Test C postemergence
Procedure, shortened: as §1

[8] = tested on: woolly cupgrass (Eriochloa villosa); assay: Test C postemergence
Procedure, shortened: as §1

[9] = tested on: velvetleaf (Abutilon theophrasti); assay: Test C postemergence
Procedure, shortened: as §1

[10] = tested on: crabgrass (Digitaria sanguinalis); assay: Test C postemergence
Procedure, shortened: as §1

[11] = tested on: common ragweed (Ambrosia elatior); assay: Test C postemergence
Procedure, shortened: as §1

[12] = tested on: giant foxtail (Setaria faberii); assay: Test C postemergence
Procedure, shortened: as §1

[13] = tested on: lambsquarters (Chenopodium album); assay: Test C postemergence
Procedure, shortened: as §1

soybean (Glycine max) = assay: Test C postemergence
Procedure, shortened: as §1

[14] = tested on: goosegrass (Eleusine indica); assay: Test C postemergence
Procedure, shortened: as §1

[15] = tested on: chickweed (Stellaria media); assay: Test C postemergence
Procedure, shortened: as §1

[16] = tested on: pigweed (Amaranthus retroflexus); assay: Test C postemergence
Procedure, shortened: as §1

[17] = tested on: johnsongrass (Sorghum halepense); assay: Test C postemergence
Procedure, shortened: as §1

[18] = tested on: Surinam grass (Brachiaria decumbens); assay: Test C postemergence
Procedure, shortened: as §1

[19] = tested on: cocklebur (Xanthium strumarium); assay: Test C postemergence
Procedure, shortened: as §1

kochia (Kochia scoparia) = assay: Test C postemergence
Procedure, shortened: as §1

[20] = Rate 125 g/ha, scale 0 to 100, 0 no effect, 100 complete control
[21] = preemergence, Rate 62 g/ha, scale 0 to 100
[22] = preemergence, Rate 250 g/ha, scale 0 to 100, 0 no effect, 100 complete control
[23] = Rate 250 g/ha, scale 0 to 100 (0 no effect, 100 complete control)
[24] = Rate 500 g/ha, scale 0 to 100 (0 no effect, 100 complete control)

## CCC(C)c1ccn(C2CCN(c3ccc(Br)c(OC)c3)C2=O)n1 (centres unmarked) [Compound 142]
[1]; [20]
  Plant response rating, Bermudagrass: 100
[1]; [21]
  Plant response rating, Bermudagrass: 100
[1]; preemergence
  Plant response rating (0 to 100 where 0 is no effect and 100 is complete control), Bermudagrass: 100
[1]; [22]
  Plant response rating, Bermudagrass: 100
[2]; [20]
  Plant response rating, Nutsedge: 0
[2]; [21]
  Plant response rating, Nutsedge: 0
[2]; preemergence
  Plant response rating (0 to 100), Nutsedge: 20
[2]; [22]
  Plant response rating, Nutsedge: 0
[3]; [20]
  Plant response rating, Foxtail, Giant: 100
[3]; [21]
  Plant response rating, Foxtail, Giant: 100
[3]; preemergence
  Plant response rating (0 to 100), Foxtail, Giant: 100
[3]; [22]
  Plant response rating, Foxtail, Giant: 100
[4]; [20]
  Plant response rating, Pigweed: 100
[4]; [21]
  Plant response rating, Pigweed: 100
[4]; preemergence
  Plant response rating (0 to 100), Pigweed: 100
[4]; [22]
  Plant response rating, Pigweed: 100
Sunflower
  Plant response rating, Sunflower: 20
[5]; Rate 62 g/ha, scale 0 to 100
  Plant response rating, Morningglory: 20
[5]; [23]
  Plant response rating, Morningglory: 100
[5]; [24]
  Plant response rating, Morningglory: 100
Corn (Zea mays); Rate 62 g/ha, scale 0 to 100
  Plant response rating, Corn: 0
Corn (Zea mays); [23]
  Plant response rating, Corn: 0
Corn (Zea mays); [24]
  Plant response rating, Corn: 20
Corn (Zea mays); scale 0 to 100
  Plant response rating, Corn: 0
[6]; Rate 62 g/ha, scale 0 to 100
  Plant response rating, Bermudagrass: 30
[6]; [20]
  Plant response rating, Bermudagrass: 40
[6]; [23]
  Plant response rating, Bermudagrass: 60
[6]; [24]
  Plant response rating, Bermudagrass: 80
[7]; Rate 62 g/ha, scale 0 to 100
  Plant response rating, Nutsedge: 0
[7]; [23]
  Plant response rating, Nutsedge: 0
[7]; [24]
  Plant response rating, Nutsedge: 20
[8]; Rate 62 g/ha, scale 0 to 100
  Plant response rating, Cupgrass, Woolly: 40
[8]; [23]
  Plant response rating, Cupgrass, Woolly: 50
[8]; [24]
  Plant response rating, Cupgrass, Woolly: 70
[9]; Rate 62 g/ha, scale 0 to 100
  Plant response rating, Velvetleaf: 50
[9]; [23]
  Plant response rating, Velvetleaf: 80
[9]; [24]
  Plant response rating, Velvetleaf: 80
[9]; scale 0 to 100
  Plant response rating, Velvetleaf: 70
[10]; Rate 62 g/ha, scale 0 to 100
  Plant response rating, Crabgrass: 40
[10]; [23]
  Plant response rating, Crabgrass: 70
[10]; [24]
  Plant response rating, Crabgrass: 70
[11]; Rate 62 g/ha, scale 0 to 100
  Plant response rating, Ragweed, Common: 50
[11]; [23]
  Plant response rating, Ragweed, Common: 90
[11]; [24]
  Plant response rating, Ragweed, Common: 100
[12]; Rate 62 g/ha, scale 0 to 100
  Plant response rating, Foxtail, Giant: 90
[12]; [23]
  Plant response rating, Foxtail, Giant: 90
[12]; [24]
  Plant response rating, Foxtail, Giant: 90
[13]; Rate 62 g/ha, scale 0 to 100
  Plant response rating, Lambsquarters: 80
[13]; [23]
  Plant response rating, Lambsquarters: 100
[13]; [24]
  Plant response rating, Lambsquarters: 100
Soybean (Glycine max); Rate 62 g/ha, scale 0 to 100
  Plant response rating, Soybean: 60
Soybean (Glycine max); [23]
  Plant response rating, Soybean: 90
Soybean (Glycine max); [24]
  Plant response rating, Soybean: 90
[14]; Rate 62 g/ha, scale 0 to 100
  Plant response rating, Goosegrass: 30
[14]; [23]
  Plant response rating, Goosegrass: 50
[14]; [24]
  Plant response rating, Goosegrass: 70
[15]; [20]
  Plant response rating, Chickweed: 100
[16]; Rate 62 g/ha, scale 0 to 100
  Plant response rating, Pigweed: 80
[16]; [23]
  Plant response rating, Pigweed: 90
[16]; [24]
  Plant response rating, Pigweed: 90
[17]; Rate 62 g/ha, scale 0 to 100
  Plant response rating, Johnsongrass: 20
[17]; [23]
  Plant response rating, Johnsongrass: 30
[17]; [24]
  Plant response rating, Johnsongrass: 30
[17]; rate not given, scale 0 to 100
  Plant response rating, Johnsongrass: 30
[18]; Rate 62 g/ha, scale 0 to 100
  Plant response rating, Surinam grass: 20
[18]; [20]
  Plant response rating, Surinam grass: 30
[18]; [23]
  Plant response rating, Surinam grass: 30
[18]; [24]
  Plant response rating, Surinam grass: 30
[19]; Rate 62 g/ha, scale 0 to 100
  Plant response rating, Cocklebur: 30
[19]; [23]
  Plant response rating, Cocklebur: 90
[19]; [24]
  Plant response rating, Cocklebur: 90
Kochia (Kochia scoparia); Rate 62 g/ha, scale 0 to 100
  Plant response rating, Kochia: 40
Kochia (Kochia scoparia); [23]
  Plant response rating, Kochia: 90
Kochia (Kochia scoparia); [24]
  Plant response rating, Kochia: 90

## CCC(CC)c1ccn(C2CCN(c3ccc(Br)c(OC)c3)C2=O)n1 (centres unmarked) [Compound 143]
[1]; [20]
  Plant response rating, Bermudagrass: 100
[1]; [21]
  Plant response rating, Bermudagrass: 100
[1]; preemergence
  Plant response rating (0 to 100 where 0 is no effect and 100 is complete control), Bermudagrass: 100
[1]; [22]
  Plant response rating, Bermudagrass: 100
[2]; [20]
  Plant response rating, Nutsedge: 0
[2]; [21]
  Plant response rating, Nutsedge: 0
[2]; preemergence
  Plant response rating (0 to 100), Nutsedge: 0
[2]; [22]
  Plant response rating, Nutsedge: 0
[3]; [20]
  Plant response rating, Foxtail, Giant: 100
[3]; [21]
  Plant response rating, Foxtail, Giant: 100
[3]; preemergence
  Plant response rating (0 to 100), Foxtail, Giant: 100
[3]; [22]
  Plant response rating, Foxtail, Giant: 100
[4]; [20]
  Plant response rating, Pigweed: 100
[4]; [21]
  Plant response rating, Pigweed: 100
[4]; preemergence
  Plant response rating (0 to 100), Pigweed: 100
[4]; [22]
  Plant response rating, Pigweed: 100
Sunflower
  Plant response rating, Sunflower: 80
[5]; Rate 62 g/ha, scale 0 to 100
  Plant response rating, Morningglory: 90
[5]; [23]
  Plant response rating, Morningglory: 100
[5]; [24]
  Plant response rating, Morningglory: 100
Corn (Zea mays); Rate 62 g/ha, scale 0 to 100
  Plant response rating, Corn: 0
Corn (Zea mays); [23]
  Plant response rating, Corn: 0
Corn (Zea mays); [24]
  Plant response rating, Corn: 30
Corn (Zea mays); scale 0 to 100
  Plant response rating, Corn: 0
[6]; Rate 62 g/ha, scale 0 to 100
  Plant response rating, Bermudagrass: 20
[6]; [20]
  Plant response rating, Bermudagrass: 40
[6]; [23]
  Plant response rating, Bermudagrass: 70
[6]; [24]
  Plant response rating, Bermudagrass: 80
[7]; Rate 62 g/ha, scale 0 to 100
  Plant response rating, Nutsedge: 0
[7]; [23]
  Plant response rating, Nutsedge: 0
[7]; [24]
  Plant response rating, Nutsedge: 0
[8]; Rate 62 g/ha, scale 0 to 100
  Plant response rating, Cupgrass, Woolly: 40
[8]; [23]
  Plant response rating, Cupgrass, Woolly: 60
[8]; [24]
  Plant response rating, Cupgrass, Woolly: 70
[9]; Rate 62 g/ha, scale 0 to 100
  Plant response rating, Velvetleaf: 40
[9]; [23]
  Plant response rating, Velvetleaf: 80
[9]; [24]
  Plant response rating, Velvetleaf: 90
[9]; scale 0 to 100
  Plant response rating, Velvetleaf: 40
[10]; Rate 62 g/ha, scale 0 to 100
  Plant response rating, Crabgrass: 40
[10]; [23]
  Plant response rating, Crabgrass: 70
[10]; [24]
  Plant response rating, Crabgrass: 70
[11]; Rate 62 g/ha, scale 0 to 100
  Plant response rating, Ragweed, Common: 20
[11]; [23]
  Plant response rating, Ragweed, Common: 90
[11]; [24]
  Plant response rating, Ragweed, Common: 90
[12]; Rate 62 g/ha, scale 0 to 100
  Plant response rating, Foxtail, Giant: 30
[12]; [23]
  Plant response rating, Foxtail, Giant: 80
[12]; [24]
  Plant response rating, Foxtail, Giant: 90
[13]; Rate 62 g/ha, scale 0 to 100
  Plant response rating, Lambsquarters: 90
[13]; [23]
  Plant response rating, Lambsquarters: 90
[13]; [24]
  Plant response rating, Lambsquarters: 100
Soybean (Glycine max); Rate 62 g/ha, scale 0 to 100
  Plant response rating, Soybean: 60
Soybean (Glycine max); [23]
  Plant response rating, Soybean: 100
Soybean (Glycine max); [24]
  Plant response rating, Soybean: 100
[14]; Rate 62 g/ha, scale 0 to 100
  Plant response rating, Goosegrass: 30
[14]; [23]
  Plant response rating, Goosegrass: 60
[14]; [24]
  Plant response rating, Goosegrass: 70
[15]; Rate 62 g/ha, scale 0 to 100
  Plant response rating, Chickweed: 100
[15]; [20]
  Plant response rating, Chickweed: 100
[16]; Rate 62 g/ha, scale 0 to 100
  Plant response rating, Pigweed: 70
[16]; [23]
  Plant response rating, Pigweed: 70
[16]; [24]
  Plant response rating, Pigweed: 90
[17]; Rate 62 g/ha, scale 0 to 100
  Plant response rating, Johnsongrass: 0
[17]; [23]
  Plant response rating, Johnsongrass: 30
[17]; [24]
  Plant response rating, Johnsongrass: 30
[17]; rate not given, scale 0 to 100
  Plant response rating, Johnsongrass: 10
[18]; Rate 62 g/ha, scale 0 to 100
  Plant response rating, Surinam grass: 20
[18]; [20]
  Plant response rating, Surinam grass: 20
[18]; [23]
  Plant response rating, Surinam grass: 50
[18]; [24]
  Plant response rating, Surinam grass: 70
[19]; Rate 62 g/ha, scale 0 to 100
  Plant response rating, Cocklebur: 20
[19]; [23]
  Plant response rating, Cocklebur: 90
[19]; [24]
  Plant response rating, Cocklebur: 90
Kochia (Kochia scoparia); Rate 62 g/ha, scale 0 to 100
  Plant response rating, Kochia: 40
Kochia (Kochia scoparia); [23]
  Plant response rating, Kochia: 90
Kochia (Kochia scoparia); [24]
  Plant response rating, Kochia: 90
